Values of other authors in US8226992B1, “Composition and method of preventing and treating redox diseases” (priority 2009, dated 2012).

Experiments:
[1] = target: T1, Farnesoid X Receptors (FXR) (Mus musculus, UniProt Q60641); conditions: mouse model
T1 sequence (Q60641 1-488): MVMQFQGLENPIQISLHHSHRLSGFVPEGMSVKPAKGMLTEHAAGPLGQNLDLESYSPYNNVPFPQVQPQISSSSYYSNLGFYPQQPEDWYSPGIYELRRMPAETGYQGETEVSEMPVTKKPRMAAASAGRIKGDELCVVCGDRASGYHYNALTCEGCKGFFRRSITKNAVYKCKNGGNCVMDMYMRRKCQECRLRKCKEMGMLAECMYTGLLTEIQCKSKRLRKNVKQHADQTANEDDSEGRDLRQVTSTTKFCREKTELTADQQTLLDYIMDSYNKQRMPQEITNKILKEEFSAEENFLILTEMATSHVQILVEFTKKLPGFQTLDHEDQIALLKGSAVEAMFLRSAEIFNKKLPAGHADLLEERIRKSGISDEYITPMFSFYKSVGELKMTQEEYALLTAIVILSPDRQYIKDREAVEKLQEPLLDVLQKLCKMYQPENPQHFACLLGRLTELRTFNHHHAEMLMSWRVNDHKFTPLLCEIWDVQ

[2] = at high levels

Question: With `C[C@@]12CCc3occc3[C@H]1CC[C@@]13C[C@@H](CC[C@H]12)[C@@](O)(CO)C3` [Cafestol] as the compound, how does the “activity at Farnesoid X Receptors (FXR)” value [1] read?
Answer: Its value is “agonist ligand”.

Question: Which “Lp(a) levels reduced” value [2] does the source give for `O=C(O)c1cccnc1` [Naicin] here?
Answer: Its value is “up to 15%”.
